# According to ChEMBL document CHEMBL2440076, “New triarylpyrazoles as broad-spectrum anticancer agents: design, synthesis, and biological evaluation” (Eur J Med Chem, 2013):
# Columns and labels:
# Assay type in all cases: functional
# [1] = system: NCI-H23; test: Growth inhibition of human NCI-H23 cells assessed as cell growth at 5X10'-9 M after 48 hrs by sulforhodamine B assay; details: NCI-H23, 48 h, read-out: Activity
# [2] = system: NCI-H460; test: Growth inhibition of human NCI-H460 cells assessed as cell growth at 5X10'-5 M after 48 hrs by sulforhodamine B assay; details: NCI-H460, 48 h, read-out: Activity
# [3] = system: HCT-15; test: Growth inhibition of human HCT15 cells assessed as cell growth at 5X10'-9 M after 48 hrs by sulforhodamine B assay; details: HCT-15, 48 h, read-out: Activity
# [4] = system: Malme-3M; test: Growth inhibition of human MALME-3M cells assessed as cell growth at 5X10'-7 M after 48 hrs by sulforhodamine B assay; details: read-out: Activity
# [5] = system: ACHN; test: Growth inhibition of human ACHN cells assessed as cell growth at 5X10'-5 M after 48 hrs by sulforhodamine B assay; details: read-out: Activity
# [6] = system: SF-295; test: Growth inhibition of human SF295 cells assessed as cell growth at 5X10'-5 M after 48 hrs by sulforhodamine B assay; details: SF-295, 48 h, read-out: Activity
# [7] = system: OVCAR-8; test: Growth inhibition of human OVCAR8 cells assessed as cell growth at 5X10'-7 M after 48 hrs by sulforhodamine B assay; details: OVCAR-8, 48 h, read-out: Activity
# [8] = system: SNB-19; test: Growth inhibition of human SNB19 cells assessed as cell growth at 5X10'-7 M after 48 hrs by sulforhodamine B assay; details: SNB-19, 48 h, read-out: Activity
# [9] = system: UACC-257; test: Growth inhibition of human UACC257 cells assessed as cell growth at 5X10'-5 M after 48 hrs by sulforhodamine B assay; details: UACC-257, 48 h, read-out: Activity
# [10] = Growth inhibition of human NCI-ADR-RES cells assessed as cell growth at 5X10'-8 M after 48 hrs by sulforhodamine B assay; details: read-out: Activity
# [11] = system: SF-539; test: Growth inhibition of human SF539 cells assessed as cell growth at 5X10'-7 M after 48 hrs by sulforhodamine B assay; details: SF-539, 48 h, read-out: Activity
# [12] = Growth inhibition of human HCC2998 cells assessed as cell growth at 5X10'-5 M after 48 hrs by sulforhodamine B assay; details: HCC 2998, 48 h, read-out: Activity
# [13] = system: DU-145; test: Growth inhibition of human DU145 cells assessed as cell growth at 5X10'-5 M after 48 hrs by sulforhodamine B assay; details: DU-145, 48 h, read-out: Activity
# [14] = system: SK-MEL-5; test: Growth inhibition of human SK-MEL-5 cells assessed as cell growth at 5X10'-9 M after 48 hrs by sulforhodamine B assay; details: SK-MEL-5, 48 h, read-out: Activity
# [15] = system: HT-29; test: Growth inhibition of human HT-29 cells assessed as cell growth at 5X10'-5 M after 48 hrs by sulforhodamine B assay; details: HT-29, 48 h, read-out: Activity
# [16] = system: UACC-62; test: Growth inhibition of human UACC62 cells assessed as cell growth at 5X10'-7 M after 48 hrs by sulforhodamine B assay; details: UACC-62, 48 h, read-out: Activity
# [17] = system: NCI-H460; test: Growth inhibition of human NCI-H460 cells assessed as cell growth at 5X10'-6 M after 48 hrs by sulforhodamine B assay; details: NCI-H460, 48 h, read-out: Activity
# [18] = system: U-251; test: Growth inhibition of human U251 cells assessed as cell growth at 5X10'-5 M after 48 hrs by sulforhodamine B assay; details: U-251, 48 h, read-out: Activity
# [19] = system: DU-145; test: Growth inhibition of human DU145 cells assessed as cell growth at 5X10'-7 M after 48 hrs by sulforhodamine B assay; details: DU-145, 48 h, read-out: Activity
# [20] = system: M14; test: Growth inhibition of human M14 cells assessed as cell growth at 5X10'-7 M after 48 hrs by sulforhodamine B assay; details: M14, 48 h, read-out: Activity
# [21] = system: MDA-MB-468; test: Growth inhibition of human MDA-MB-468 cells assessed as cell growth at 5X10'-6 M after 48 hrs by sulforhodamine B assay; details: MDA-MB-468, 48 h, read-out: Activity
# [22] = system: DU-145; test: Growth inhibition of human DU145 cells assessed as cell growth at 5X10'-8 M after 48 hrs by sulforhodamine B assay; details: DU-145, 48 h, read-out: Activity
# [23] = system: A498; test: Growth inhibition of human A498 cells assessed as cell growth at 5X10'-7 M after 48 hrs by sulforhodamine B assay; details: A498, 48 h, read-out: Activity
# [24] = system: OVCAR-3; test: Growth inhibition of human OVCAR3 cells assessed as cell growth at 5X10'-8 M after 48 hrs by sulforhodamine B assay; details: OVCAR-3, 48 h, read-out: Activity
# [25] = system: K562; test: Growth inhibition of human K562 cells assessed as cell growth at 5X10'-5 M after 48 hrs by sulforhodamine B assay; details: K562, 48 h, read-out: Activity
# [26] = system: UACC-257; test: Growth inhibition of human UACC257 cells assessed as cell growth at 5X10'-7 M after 48 hrs by sulforhodamine B assay; details: UACC-257, 48 h, read-out: Activity
# [27] = system: MCF7; test: Growth inhibition of human MCF7 cells assessed as cell growth at 5X10'-9 M after 48 hrs by sulforhodamine B assay; details: MCF7, 48 h, read-out: Activity
# [28] = system: SW-620; test: Growth inhibition of human SW620 cells assessed as cell growth at 5X10'-6 M after 48 hrs by sulforhodamine B assay; details: SW-620, 48 h, read-out: Activity
# [29] = system: LOX IMVI; test: Growth inhibition of human LOXIMVI cells assessed as cell growth at 5X10'-8 M after 48 hrs by sulforhodamine B assay; details: read-out: Activity
# [30] = system: SF-295; test: Growth inhibition of human SF295 cells assessed as cell growth at 5X10'-8 M after 48 hrs by sulforhodamine B assay; details: SF-295, 48 h, read-out: Activity
# [31] = system: KM12; test: Growth inhibition of human KM12 cells assessed as cell growth at 5X10'-7 M after 48 hrs by sulforhodamine B assay; details: KM12, 48 h, read-out: Activity
# [32] = system: A549; test: Growth inhibition of human A549/ATCC cells assessed as cell growth at 5X10'-7 M after 48 hrs by sulforhodamine B assay; details: A549, 48 h, read-out: Activity
# [33] = system: RXF 393; test: Growth inhibition of human RXF393 cells assessed as cell growth at 5X10'-8 M after 48 hrs by sulforhodamine B assay; details: RXF 393, 48 h, read-out: Activity
# [34] = Growth inhibition of human Hs 578T cells assessed as cell growth at 5X10'-9 M after 48 hrs by sulforhodamine B assay; details: read-out: Activity
# [35] = system: SK-OV-3; test: Growth inhibition of human SKOV3 cells assessed as cell growth at 5X10'-5 M after 48 hrs by sulforhodamine B assay; details: SK-OV-3, 48 h, read-out: Activity
# [36] = system: NCI-H23; test: Growth inhibition of human NCI-H23 cells assessed as cell growth at 5X10'-8 M after 48 hrs by sulforhodamine B assay; details: NCI-H23, 48 h, read-out: Activity
# [37] = system: SF-539; test: Growth inhibition of human SF539 cells assessed as cell growth at 5X10'-9 M after 48 hrs by sulforhodamine B assay; details: SF-539, 48 h, read-out: Activity
structure (smiles),measurement,setting,value
O=C(Nc1cccc(-n2cc(-c3ccncc3)c(-c3ccc(Cl)c(O)c3)n2)c1)c1ccc(N2CCOCC2)c(C(F)(F)F)c1,growth at 0.005 µM,[1],93%
same,growth at 50 µM,[2],-10%
same,growth at 0.005 µM,[3],94%
same,growth at 0.5 µM,[4],89%
same,growth at 50 µM,[5],8%
same,growth at 50 µM,[6],-59%
same,growth at 0.5 µM,[7],86%
same,growth at 0.5 µM,[8],105%
same,growth at 50 µM,[9],-9%
same,growth at 0.05 µM,[10],98%
same,growth at 0.5 µM,[11],73%
same,growth at 50 µM,[12],4%
same,growth at 50 µM,[13],26%
same,growth at 0.005 µM,[14],101%
same,growth at 50 µM,[15],16%
same,growth at 0.5 µM,[16],97%
same,growth at 5 µM,[17],9%
same,growth at 50 µM,[18],-7%
same,growth at 0.5 µM,[19],96%
same,growth at 0.5 µM,[20],84%
same,growth at 5 µM,[21],63%
same,growth at 0.05 µM,[22],97%
same,growth at 0.5 µM,[23],89%
same,growth at 0.05 µM,[24],100%
same,growth at 50 µM,[25],3%
same,growth at 0.5 µM,[26],90%
same,growth at 0.005 µM,[27],89%
same,growth at 5 µM,[28],2%
same,growth at 0.05 µM,[29],96%
same,growth at 0.05 µM,[30],98%
same,growth at 0.5 µM,[31],85%
same,growth at 0.5 µM,[32],92%
same,growth at 0.05 µM,[33],101%
same,growth at 0.005 µM,[34],92%
same,growth at 50 µM,[35],36%
same,growth at 0.05 µM,[36],93%
same,growth at 0.005 µM,[37],92%
